In article PMC4688987, “Characterization of Toxoplasma gondii glyoxalase 1 and evaluation of inhibitory effects of curcumin on the enzyme and parasite cultures” (Parasites & Vectors, 2015):

Molecular target: T1, rTgGlo1 (recombinant Toxoplasma gondii glyoxalase 1) (Toxoplasma gondii, UniProt A0A7J6JV59)
T1 construct: gene TGRH88_062270; full-length ORF (1008 nt, printed 336 residues) in pRSETb, His-tagged, E. coli BL21(DE3)pLysS; S-hexylglutathione-agarose then Ni-NTA; two glyoxalase domains 20-167 and 181-325
T1 sequence (A0A7J6JV59 1-336): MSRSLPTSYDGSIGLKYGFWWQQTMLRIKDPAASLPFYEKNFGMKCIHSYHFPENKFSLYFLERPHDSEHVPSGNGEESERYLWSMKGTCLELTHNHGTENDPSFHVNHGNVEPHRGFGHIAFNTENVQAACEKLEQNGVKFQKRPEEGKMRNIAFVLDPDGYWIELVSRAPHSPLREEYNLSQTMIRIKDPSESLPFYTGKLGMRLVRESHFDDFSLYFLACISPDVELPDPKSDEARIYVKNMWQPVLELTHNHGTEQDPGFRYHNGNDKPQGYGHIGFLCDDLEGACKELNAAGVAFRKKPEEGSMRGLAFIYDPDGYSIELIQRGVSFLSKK
Assay: spectrophotometric at […] nm, Lineweaver-Burk
Format: biochemical

Q: How did the Ki turn out when `COc1cc(/C=C/C(=O)CC(=O)/C=C/c2ccc(O)c(OC)c2)ccc1O` [curcumin] was run?
A: 12.9 ± 0.5 µM
